7 compounds from patent publication US20100098631A1, “Novel-2-Heteroaryl Substituted Indoles 695” (ASTRAZENECA AB, priority 2007, published 2010) can be followed below.

T1 sequence (P05067 672-711 limits assumed): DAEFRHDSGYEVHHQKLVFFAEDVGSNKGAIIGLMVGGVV

This assay has as its target T1, synthetic Aβ 1-40 (Homo sapiens, UniProt P05067).
T1 construct: using synthetic Aβ 1-40 in 2.7 nM of [^3H]PIB
The assay can be described thus: Competition binding assay ([3H]PIB as radioligand). The settings on record: [3H]PIB 2.7 nM as radioligand, synthetic Aβ 1-40, phosphate buffer pH 7.5, 30 min room temperature; read-out: IC50 in the competion binding assay. Here is the method:
Competition binding was performed in 384-well FB filter plates using synthetic Aβ 1-40 in 2.7 nM of [^3H]PIB (or another ^3H-labeled radioligand when so mentioned) in phosphate buffer at pH 7.5, by adding various concentrations of non-radioactive compounds originally dissolved in DMSO. The binding mixture was incubated for 30 min at room temperature, followed by vacuum filtration, and subsequently by washing twice with 1% Triton-X100. Scintillation fluid was thereafter added to the collected Aβ 1-40 on the filter plate, and the activity of the bound remaining radioligand ([^3H]PIB or another ^3H-labeled radioligand) was measured using 1450 Microbeta from PerkinElmer. Specific binding was determined according to the competion binding assay described herein. The determined IC50's in the competion binding assays (using [^3H]PIB as radioligand) of compounds of the present invention are shown in Table 1.
Consider `CNc1ccc(-c2cc3cc(OC)ccc3[nH]2)cn1` [5-(5-Methoxy-1H-indol-2-yl)—N-methylpyridin-2-amine], for which the concentration for half-maximal inhibition (IC50) came out at 201 nM.
Then `COC(=O)c1ccc(-c2cc3cc(OC)ccc3[nH]2)nc1` [Methyl 6-(5-methoxy-1H-indol-2-yl)-nicotinate], with 141 nM.
Then `COC(=O)c1ccc(-c2cc3cc(O)ccc3[nH]2)nc1` [6-(5-Hydroxy-1H-indol-2-yl)-Nicotinic Acid Methyl Ester], with 140 nM; and `CC(C)(C)OC(=O)n1c(-c2ccc(C(N)=O)nc2)cc2cc(F)ccc21` [tert-Butyl 2-(6-carbamoylpyridin-3-yl)-5-fluoro-1H-indole-1-carboxylate], with 5370 nM.
Regarding `CNc1ccc(-c2cc3cc(O)ccc3[nH]2)cn1` [2-[6-(Methylamino)pyridin-3-yl]-1H-indol-5-ol], the IC50 came to 736 nM.
Then `NC(=O)c1ccc(-c2cc3ccccc3[nH]2)cn1` [5-(1H-indol-2-yl)pyridine-2-carboxamide, 5-(1H-Indol-2-yl)pyridine-2-carboxamide], with 143 nM; and `CNc1ccc(-c2cc3cc(F)ccc3[nH]2)cn1` [5-(5-Fluoro-1H-indol-2-yl)—N-methylpyridin-2-amine], with 152 nM.
